Test results taken from publication PMC6511942, “Exploitation of Antibiotic Resistance as a Novel Drug Target: Development of a β-Lactamase-Activated Antibacterial Prodrug” (Journal of Medicinal Chemistry, 2019).

Legend:
[1] = test system: DH5α expressing CTX-M-1; assay: Whole-cell NMR β-lactamase hydrolysis assay, DH5α + CTX-M-1; format: cell-based, E. coli; settings: DH5α + CTX-M-1, 100 μM, 60 min
[2] = test system: DH5α cells –βla; assay: Whole-cell NMR β-lactamase hydrolysis assay, DH5α without β-lactamase; format: cell-based, E. coli; settings: DH5α – CTX-M-1, 100 μM, 60 min
[3] = target: T1, recombinant DNA gyrase (Escherichia coli, UniProt P0AES4+P0AES6); assay: Recombinant DNA gyrase supercoiling assay ± CTX-M-15; format: biochemical, E. coli; settings: ± CTX-M-15
T1 construct: purchased Inspiralis
T1 sequence (P0AES4 whole entry, one chain of several): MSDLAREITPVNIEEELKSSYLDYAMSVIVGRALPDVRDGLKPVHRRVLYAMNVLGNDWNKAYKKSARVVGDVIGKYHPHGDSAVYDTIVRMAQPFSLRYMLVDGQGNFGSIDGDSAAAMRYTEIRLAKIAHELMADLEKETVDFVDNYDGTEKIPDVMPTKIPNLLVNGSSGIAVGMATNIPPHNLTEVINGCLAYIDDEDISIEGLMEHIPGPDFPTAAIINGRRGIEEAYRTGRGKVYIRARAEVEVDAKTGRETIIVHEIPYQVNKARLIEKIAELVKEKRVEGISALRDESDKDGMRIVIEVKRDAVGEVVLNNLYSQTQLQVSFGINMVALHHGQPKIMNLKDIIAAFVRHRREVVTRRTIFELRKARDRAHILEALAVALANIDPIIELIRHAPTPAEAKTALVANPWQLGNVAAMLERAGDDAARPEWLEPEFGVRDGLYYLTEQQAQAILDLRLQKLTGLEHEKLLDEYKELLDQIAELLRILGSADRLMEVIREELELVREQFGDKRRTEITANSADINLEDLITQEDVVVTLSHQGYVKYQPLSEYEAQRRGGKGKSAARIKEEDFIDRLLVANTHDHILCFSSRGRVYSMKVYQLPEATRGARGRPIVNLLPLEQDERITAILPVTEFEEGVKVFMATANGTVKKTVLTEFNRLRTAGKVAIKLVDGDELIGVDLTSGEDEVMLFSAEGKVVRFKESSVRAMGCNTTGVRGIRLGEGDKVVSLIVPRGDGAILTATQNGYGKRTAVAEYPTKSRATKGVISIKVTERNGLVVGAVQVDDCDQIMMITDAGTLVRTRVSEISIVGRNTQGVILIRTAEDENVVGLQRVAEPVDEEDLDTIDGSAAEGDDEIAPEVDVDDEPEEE

[4] = test system: CFT073 + pSU18 + CTX-M-1; assay: Whole-cell NMR β-lactamase hydrolysis assay, CFT073 + CTX-M-1; format: cell-based, E. coli; settings: 100 μM compound at 1 h by whole-cell NMR assay
[5] = test system: E. coli strain DH5α; assay: MIC, broth microdilution, E. coli DH5α; format: cell-based; settings: for MIC value DH5α: E. coli DH5α without β-lactamase
Method: Analysis of the literature identified the amide functionality at C-7 of the cephem ring as central to PBP and β-lactamase activity,[44]−[51] and therefore structural changes at this position provided the initial focus of investigation. By use of cephalothin 7 (Table 1) as the starting point, analogues were prepared to explore bioisosteric replacement,[52],[53] functionalities present in early generation β-lactam antibiotics, and to probe steric and electronic tolerance.[54],[55] All compounds were synthesized according to the previously reported methods (Figure S1 in Supporting Information).[55],[56] Antibacterial activity was assessed by determining the minimal concentration required to inhibit bacterial growth, known as the minimal inhibitory concentration (MIC), against the E. coli strain DH5α ± expression of the ESBL TEM-116.[57] The susceptibility to β-lactamase mediated hydrolysis was assessed by determining the physiological efficiency (kcat/Km) of hydrolysis by recombinant AmpC protein.[3],[58],[59] […]
pNDM pSU18 containing the native coding sequence for NDM-1 under the Jiménez-control of the native promoter Castellanos et […]
pKPC pSU18 containing the native coding sequence for KPC-3 under the Brem et al., control of the native promoter 20166
Transformation of E. coli with plasmids
Plasmids were introduced via heat shock into chemically competent DH5a and via electroporation into E. coli CFT073 following published protocols.8 […]
The bacterial strains and plasmids used in this study are detailed in Supplementary Table 1.
E. coli was grown in Mueller-Hinton Broth (MHB) or Lennox Broth (LB) at 37 °C, with shaking (180 r.p.m.) overnight (16-18 h). […]
MIC assays were performed in 96-well thermo scientific Nuclon Delta Surface plates and MICs were determined in accordance with the broth microdilution protocol.7 E. coli grown to stationary-phase in MHB or LB were adjusted to OD600 nm of 0.05 in MHB and […]
determined as the lowest concentration of antibiotic that inhibited visible bacterial growth.
OD595 measurements were recorded on a BioRad 1Mark Microplate Reader. […]
subsequently incubated at 37 °C with shaking (180 r.p.m.) and bacterial viability determined […]
Each compound was incubated for 1 hour at room temperature in 100 mM NaPO4 (pH 7) ± 0.5 M NaOH. The wavelength at which the difference between un-hydrolysed and hydrolysed compound was the greatest was selected (typically 263 nm) and a compound concentration vs. absorbance standard curve was generated. […] Recombinant Amp-C in assay buffer was added immediately before incubatio n in the microplate reader at 37 °C. UV absorbance was measured every 20 s for 1 h on a BMG LABTECH SPECTROstarNano. Kinetic parameters were determined by half -life analysis. […]

[6] = test system: CFT073 + pSU18 (pEMP); assay: microbe, parasite or virus in culture; format: cell-based, E. coli; settings: Escherichia coli, read-out: MIC value CFT073 + pSU18, empty plasmid, no β-lactamase
[7] = test system: DH5α + TEM-116; assay: Whole-cell NMR β-lactamase hydrolysis assay, DH5α + TEM-116; format: cell-based, E. coli; settings: DH5α + TEM-116, 100 μM, 90 min
[8] = target: T2, recombinant AmpC protein (Escherichia coli, UniProt P00811); format: biochemical
T2 construct: purchased Abcam ab104926
T2 sequence (P00811 20-377): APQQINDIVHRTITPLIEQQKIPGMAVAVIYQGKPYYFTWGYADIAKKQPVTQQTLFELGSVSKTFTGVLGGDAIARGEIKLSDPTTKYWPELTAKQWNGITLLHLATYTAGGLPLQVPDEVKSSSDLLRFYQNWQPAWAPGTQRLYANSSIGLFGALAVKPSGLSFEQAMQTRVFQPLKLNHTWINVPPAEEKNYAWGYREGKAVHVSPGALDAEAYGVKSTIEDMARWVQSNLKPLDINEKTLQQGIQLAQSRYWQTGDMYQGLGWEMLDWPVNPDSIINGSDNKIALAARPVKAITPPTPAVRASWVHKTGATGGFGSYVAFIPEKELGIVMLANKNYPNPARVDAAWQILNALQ

CC(=O)OCC1=C(C(=O)O)N2C(=O)[C@@H](NC(=O)Cc3cccs3)[C@H]2SC1 [Ceph 7, cephalothin, reference compound]
% hydrolysis by NMR +βla ([1]; listed as cepaholothin 7): complete hydrolysis | % hydrolysis by NMR –βla [2]: 0%

O=C(O)c1cn(C2CC2)c2cc(N3CCNCC3)c(F)cc2c1=O [Ciprofloxacin 31, ciprofloxacin, reference compound]
effect of CTX-M-15 on DNA gyrase inhibitory activity [3]: not affected by CTX-M-15

CC(=O)OCC1=C(C(=O)O)N2C(=O)[C@@H](NC(=O)[C@H](C)c3ccccc3)[C@H]2SC1 [compound 10, (6R,7R)-3-(Acetoxymethyl)-8-oxo-7-((R)-2-phenylpropanamido)-5-thia-1-azabicyclo[4.2.0]oct-2-ene-2-carboxylic Acid]
% hydrolysis in CFT073 + pSU18 + CTX-M-1 [4]: 0%

CC(=O)OCC1=C(C(=O)O)N2C(=O)[C@@H](NC(=O)Cc3ccccc3)[C@H]2SC1 [compound 11, (6R,7R)-3-(Acetoxymethyl)-8-oxo-7-(2-phenylacetamido)-5-thia-1-azabicyclo[4.2.0]oct-2-ene-2-carboxylic Acid]
increase in MIC value against E. coli DH5α compared to cephalothin [5]: 4 fold

CC(=O)OCC1=C(C(=O)O)N2C(=O)[C@@H](NC(=O)Cc3ccc(C)cc3)[C@H]2SC1 [compound 12, (6R,7R)-3-(Acetoxymethyl)-8-oxo-7-(2-(p-tolyl)acetamido)-5-thia-1-azabicyclo[4.2.0]oct-2-ene-2-carboxylic Acid]
MIC [6]: 100 µM

CC(=O)OCC1=C(C(=O)O)N2C(=O)[C@@H](NC(=O)Cc3ccc(F)cc3)[C@H]2SC1 [compound 13, (6R,7R)-3-(Acetoxymethyl)-7-(2-(4-fluorophenyl)acetamido)-8-oxo-5-thia-1-azabicyclo[4.2.0]oct-2-ene-2-carboxylic Acid]
MIC [6]: 100 µM

CC(=O)OCC1=C(C(=O)O)N2C(=O)[C@@H](NC(=O)Cc3ccc(Cl)cc3)[C@H]2SC1 [compound 14, (6R,7R)-3-(Acetoxymethyl)-7-(2-(4-chlorophenyl)acetamido)-8-oxo-5-thia-1-azabicyclo[4.2.0]oct-2-ene-2-carboxylic Acid]
MIC [6]: 100 µM

CC(=O)OCC1=C(C(=O)O)N2C(=O)[C@@H](NC(=O)Cc3ccc(Br)cc3)[C@H]2SC1 [compound 15, (6R,7R)-3-(Acetoxymethyl)-7-(2-(4-bromophenyl)acetamido)-8-oxo-5-thia-1-azabicyclo[4.2.0]oct-2-ene-2-carboxylic Acid]
MIC [6]: 100 µM

CC(=O)OCC1=C(C(=O)O)N2C(=O)[C@@H](NC(=O)Cc3ccc(-c4ccccc4)cc3)[C@H]2SC1 [compound 16, (6R,7R)-7-(2-([1,1′-Biphenyl]-4-yl)acetamido)-3-(acetoxymethyl)-8-oxo-5-thia-1-azabicyclo[4.2.0]oct-2-ene-2-carboxylic Acid]
% hydrolysis by NMR +βla [1]: 100% | % hydrolysis by NMR –βla [2]: 0% | MIC value DH5α [5]: no measurable MIC values

CC(=O)OCC1=C(C(=O)O)N2C(=O)[C@@H](NC(=O)Cc3ccc(Oc4ccccc4)cc3)[C@H]2SC1 [compound 17, (6R,7R)-3-(Acetoxymethyl)-8-oxo-7-(2-(4-phenoxyphenyl)acetamido)-5-thia-1-azabicyclo[4.2.0]oct-2-ene-2-carboxylic Acid]
% hydrolysis by NMR +βla [7]: 54% | % hydrolysis by NMR –βla [2]: 0% | MIC value DH5α [5]: no measurable MIC values

CC(=O)OCC1=C(C(=O)O)N2C(=O)[C@@H](NC(=O)Cc3cccc(C)c3)[C@H]2SC1 [compound 18, (6R,7R)-3-(acetoxymethyl)-8-oxo-7-(2-(m-tolyl)acetamido)-5-thia-1-azabicyclo[4.2.0]oct-2-ene-2-carboxylic Acid]
increase in kcat/Km compared to cephalothin [8]: 3 fold | increase in kcat/Km compared to para-methyl 12 [8]: 5 fold

CC(=O)OCC1=C(C(=O)O)N2C(=O)[C@@H](NC(=O)Cc3cccc(Oc4ccccc4)c3)[C@H]2SC1 [compound 19, (6R,7R)-3-(Acetoxymethyl)-8-oxo-7-(2-(3-phenoxyphenyl)acetamido)-5-thia-1-azabicyclo[4.2.0]oct-2-ene-2-carboxylic Acid]
% hydrolysis in CFT073 + pSU18 + CTX-M-1 [4]: 0% | MIC value DH5α [5]: no measurable MIC values

CC(=O)OCC1=C(C(=O)O)N2C(=O)[C@@H](NC(=O)C3CCCCC3)[C@H]2SC1 [compound 25, (6R,7R)-3-(Acetoxymethyl)-7-(cyclohexanecarboxamido)-8-oxo-5-thia-1-azabicyclo[4.2.0]oct-2-ene-2-carboxylic Acid]
% hydrolysis in CFT073 + pSU18 + CTX-M-1 [4]: 0%

CCCCCC(=O)N[C@@H]1C(=O)N2C(C(=O)O)=C(COC(C)=O)CS[C@H]12 [compound 28, (6R,7R)-3-(Acetoxymethyl)-7-hexanamido-8-oxo-5-thia-1-azabicyclo[4.2.0]oct-2-ene-2-carboxylic Acid]
MIC [6]: 100 µM
